In PubChem BioAssay (NCI):
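Test compounds were applied to cells in 96-well plates for 48 hours at 5 doses. TGI is the concentration that stops growth completely.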

What was measured:
Test in all cases: DTP human tumour cell line panel, 48 h
SNB-19 CNS = tested on: SNB-19 CNS
KM12 colon = tested on: KM12 colon
CCRF-CEM leukemia = tested on: CCRF-CEM leukemia
SK-MEL-5 melanoma = tested on: SK-MEL-5 melanoma
LOX IMVI melanoma = tested on: LOX IMVI melanoma
PC-3 prostate = tested on: PC-3 prostate
MOLT-4 leukemia = tested on: MOLT-4 leukemia
HCC-2998 colon = tested on: HCC-2998 colon
HL-60(TB) leukemia = tested on: HL-60(TB) leukemia
OVCAR-8 ovarian = tested on: OVCAR-8 ovarian
U251 CNS = tested on: U251 CNS
SF-268 CNS = tested on: SF-268 CNS
SF-295 CNS = tested on: SF-295 CNS
CAKI-1 renal = tested on: CAKI-1 renal
DU-145 prostate = tested on: DU-145 prostate
HT29 colon = tested on: HT29 colon
COLO 205 colon = tested on: COLO 205 colon
NCI-H460 lung = tested on: NCI-H460 lung
SW-620 colon = tested on: SW-620 colon
BT-549 breast = tested on: BT-549 breast

Compound | TGI (SNB-19 CNS) [µM] | TGI (KM12 colon) [µM] | TGI (CCRF-CEM leukemia) [µM] | TGI (SK-MEL-5 melanoma) [µM] | TGI (LOX IMVI melanoma) [µM] | TGI (PC-3 prostate) [µM] | TGI (MOLT-4 leukemia) [µM] | TGI (HCC-2998 colon) [µM] | TGI (HL-60(TB) leukemia) [µM] | TGI (OVCAR-8 ovarian) [µM] | TGI (U251 CNS) [µM] | TGI (SF-268 CNS) [µM] | TGI (SF-295 CNS) [µM] | TGI (CAKI-1 renal) [µM] | TGI (DU-145 prostate) [µM] | TGI (HT29 colon) [µM] | TGI (COLO 205 colon) [µM] | TGI (NCI-H460 lung) [µM] | TGI (SW-620 colon) [µM] | TGI (BT-549 breast) [µM]
O=[N+]([O-])C(C(Cl)=C(Cl)Cl)=C(N1CCOCC1)N1CCOCC1 | > 100 | > 100 | > 100 | > 100 | > 100 | > 100 | > 100 | > 100 | > 100 | > 100 | > 100 | > 100 | > 100 | > 100 | > 100 | > 100 | > 100 |  |  | 
N#[O+].O=S(=O)([O-])[O-].[NH2-].[NH2-].[NH2-].[NH2-].[NH2-].[Ru+5] |  | > 100 | > 100 | > 100 | > 100 |  | > 100 | > 100 | > 100 | > 100 | > 100 | > 100 | > 100 | > 100 |  | > 100 | > 100 | > 100 | > 100 | 
Cc1cc(C)cc(Nc2nnc3n2S(=O)(=O)c2cc(C#N)c(Cl)cc2S3)c1 | 21.6 | 4.46 | 4.32 | 20.7 | 9.03 |  | 52 |  | 19.4 |  | 4.29 | 5.48 | 9.2 | 12.6 | 12.5 | 4.98 | 34.6 | 12.2 | 4.86 | 5.98
CCOC(=O)Cn1sc2ncc([N+](=O)[O-])cc2c1=O |  | 34.3 | 5.41 | 85.3 | 26.4 | 28 | 9.45 | 32.2 | > 100 | 30.3 |  | 44.6 | 34.8 |  | > 100 | 29.8 | 25.6 | 34.4 | 30.6 | 
CCOC(=O)CC(NC(=O)c1nc[nH]c1[N+](=O)[O-])C(=O)OCC (stereo not drawn) | > 100 | > 100 | > 100 | > 100 | > 100 |  | > 100 | > 100 |  | > 100 | 36.9 | > 100 | > 100 | > 100 |  | > 100 | > 100 | > 100 | > 100 | 
O=C(CC(=O)n1nc(-c2ccccc2)c(N=Nc2ccc(Cl)cc2)c1-c1ccccc1)Nc1cccc(Cl)c1 | > 100 | > 100 | > 100 | > 100 |  | > 100 | > 100 | > 100 | > 100 | > 100 | > 100 |  |  |  |  | > 100 | > 100 | > 100 | > 100 | > 100
NS(=O)(=O)c1nnc(NC(=O)c2ccccc2)s1 | > 100 | > 100 |  | > 100 | > 100 |  | > 100 | > 100 |  | > 100 | > 100 | > 100 | > 100 | > 100 | > 100 |  | > 100 | > 100 | > 100 | > 100
